Measured values: US20220050096A1, “ANALYTE-SENSITIVE PROBES AND CONTACT LENS FOR DIAGNOSIS OF OCULAR PATHOLOGIES” (University Of Maryland, Baltimore, priority 2020, published 2022)
Where “and” joins values, the source holds several entries; their conditions need not be identical. Equal entries are not always repeated. Blank lines part the entries; values can stand above or below the compound they belong to.

How the values were obtained:
[1] = Chloride-dependent intensity decay analysis of SPQ-C18 in Biofinity contact lenses, phosphate buffer pH 7.2; type: physicochemical
Protocol: (§1) Fluorescence Spectroscopic Measurements. Fluorescence intensities and intensity decays were measured using a Varian™ Eclipse 4 spectrofluorometer and a FluoTime300 instrument from PicoQuant™ (Berlin, Germany) and analyzed with the EasyTau™ software. The excitation source was a 473 nm laser diode with a repetition rate of 40 MHZ and a pulse width less than 100 ps. In other embodiments, the excitation source for SG-PL was at 495 nm from a Solea™ supercontinuum laser (PicoQuant™, Germany) and a 375 nm laser diode (PDL 375, PicoQuant™), a repetition rate of 40 MHz, and a pulse width less than 100 ps. Some intensity and lifetime measurements for SG-PL (as indicated) were performed using Alba V confocal fluorescence lifetime microscopy, FLIM (ISS, Urbana, Ill.), with excitation source of a 473 nm laser diode with a repetition rate of 40 MHz and a pulse width near 250 ps.
Intensity decays were measured at the emission maximum with the band of 10 to 20 nm, analyzed in terms of the multi-exponential model:
I(t)=Σαi exp(−t/ti) (equation 1)
where ti are the individual decay times and αi the initial time-zero amplitudes. The mean decay time can be represented in two ways. The average lifetime is given by:
where Σαi=1.0 and Σfi=1.0. The term fi=αi τi is proportional to the fractional contribution of each component to the total intensity decay. The term τi/Σαi τi is the fractional contribution to the steady state emission. Here, we use the amplitude-weighted lifetime given by
which is appropriate when the emission is from a single fluorophore with a changing quantum yield. For a single exponential decay, the lifetime is given by τ=1.0/(knr+Γ) and the quantum yield is given by Q=Γ/(knr+Γ) where knr is the sum of all non-radiative decay rates and Γ is the radiative decay rate. The value of Γ is determined by the molecular extinction coefficient that remains constant under most conditions. For a single type of fluorophore with a constant value of Γ the normalized αi values represent the molecular fraction of each decay time component. The value of αi and τi were determined by non-linear least squares fitting using PicoQuant™ software.
Quenching by Chloride. Collisional quenching occurs, for example, when SPQ-C18 (also referred to as OD-MQB (N-Octadecyl-6-methoxyquinolinium bromide)) has a diffusion collision with a chloride ion. The intensities (I) and lifetimes (6) are analyzed using the Stern-Volmer equation,
SPQ-C18 was synthesized using 6-methoxy quinolinium (SPQ) and 1-bromooctadecane (C18) as described in the art. Lenses were labeled by incubation with 3 ml of a 1 μM solution of SPQ-C18 in methanol-water. SPQ-C18 bound rapidly to the Biofinity™ lenses. […] Unless stated otherwise, all spectral measurements conducted for the present study were performed in 20 mM MOPS buffer, 8 mM KCl, pH 7.2, at room temperature.

[2] = Sodium binding affinity (mid-point) of SG in buffer; details: read-out: Na^+ binding constant / binding affinity (mid-point)
Protocol: as §1
Sodium Binding Affinity. The sodium affinity of the labeled lenses can be described in terms of the dissociation constant. The dissociation reaction for the probe complexed with Na+ can be written as
P—Na^+↔P+Na^+ (equation 4)
where P is the free probe with no bound sodium in the dissociation constant KD is given. The ratio of sodium free and sodium bound probe is given by
The binding affinity is given as the mid-point (MP) of the ion-dependent response where the spectral change is 50% complete. […]

f1 ([1]; NaCl 0 mM): 0.02
f2 ([1]; NaCl 0 mM): 0.10
f3 ([1]; NaCl 0 mM): 0.88
α1 ([1]; NaCl 0 mM): 0.36
α2 ([1]; NaCl 0 mM): 0.21
α3 ([1]; NaCl 0 mM): 0.44
τ1 ([1]; NaCl 0 mM): 0.69 ns
τ2 ([1]; NaCl 0 mM): 5.15 ns
τ3 ([1]; NaCl 0 mM): 20.74 ns
τf ([1]; NaCl 0 mM): 18.66 ns
τα ([1]; NaCl 0 mM): 10.35 ns
f1 ([1]; NaCl 20 mM): 0.03
f2 ([1]; NaCl 20 mM): 0.13
f3 ([1]; NaCl 20 mM): 0.84
α1 ([1]; NaCl 20 mM): 0.41
α2 ([1]; NaCl 20 mM): 0.21
α3 ([1]; NaCl 20 mM): 0.38
τ1 ([1]; NaCl 20 mM): 0.65 ns
τ2 ([1]; NaCl 20 mM): 4.98 ns
τ3 ([1]; NaCl 20 mM): 17.88 ns
τf ([1]; NaCl 20 mM): 15.65 ns
τα ([1]; NaCl 20 mM): 8.08 ns
f1 ([1]; NaCl 50 mM): 0.03
f2 ([1]; NaCl 50 mM): 0.22
f3 ([1]; NaCl 50 mM): 0.75
α1 ([1]; NaCl 50 mM): 0.38
α2 ([1]; NaCl 50 mM): 0.29
α3 ([1]; NaCl 50 mM): 0.33
τ1 ([1]; NaCl 50 mM): 0.73 ns
τ2 ([1]; NaCl 50 mM): 5.54 ns
τ3 ([1]; NaCl 50 mM): 16.81 ns
τf ([1]; NaCl 50 mM): 13.76 ns
τα ([1]; NaCl 50 mM): 7.38 ns
f1 ([1]; NaCl 90 mM): 0.05
f2 ([1]; NaCl 90 mM): 0.26
f3 ([1]; NaCl 90 mM): 0.68
α1 ([1]; NaCl 90 mM): 0.43
α2 ([1]; NaCl 90 mM): 0.31
α3 ([1]; NaCl 90 mM): 0.26
τ1 ([1]; NaCl 90 mM): 0.75 ns
τ2 ([1]; NaCl 90 mM): 5.33 ns
τ3 ([1]; NaCl 90 mM): 16.41 ns
τf ([1]; NaCl 90 mM): 12.49 ns
τα ([1]; NaCl 90 mM): 6.18 ns
f1 ([1]; NaCl 140 mM): 0.06
f2 ([1]; NaCl 140 mM): 0.31
f3 ([1]; NaCl 140 mM): 0.62
α1 ([1]; NaCl 140 mM): 0.44
α2 ([1]; NaCl 140 mM): 0.33
α3 ([1]; NaCl 140 mM): 0.22
τ1 ([1]; NaCl 140 mM): 0.82 ns
τ2 ([1]; NaCl 140 mM): 5.43 ns
τ3 ([1]; NaCl 140 mM): 16.26 ns
τf ([1]; NaCl 140 mM): 11.91 ns
τα ([1]; NaCl 140 mM): 5.81 ns
f1 ([1]; NaCl 200 mM): 0.08
f2 ([1]; NaCl 200 mM): 0.34
f3 ([1]; NaCl 200 mM): 0.58
α1 ([1]; NaCl 200 mM): 0.48
α2 ([1]; NaCl 200 mM): 0.34
α3 ([1]; NaCl 200 mM): 0.20
τ1 ([1]; NaCl 200 mM): 0.77 ns
τ2 ([1]; NaCl 200 mM): 4.92 ns
τ3 ([1]; NaCl 200 mM): 15.93 ns
τf ([1]; NaCl 200 mM): 11.03 ns
τα ([1]; NaCl 200 mM): 4.90 ns
SMILES: CCCCCCCCCCCCCCCCCC[n+]1cccc2cc(OC)ccc21 [SPQ-C18, N-Octadecyl-6-methoxyquinolinium bromide]

Kd [2]: ~10 mM and ~6.5 mM
SMILES: COc1cc(N2CCOCCOCCN(c3cc(OC)c(NC(=O)c4ccc(-c5c6cc(Cl)c(=O)cc-6oc6cc([O-])c(Cl)cc56)c(C(=O)[O-])c4)cc3OC)CCOCC2)c(OC)cc1NC(=O)c1ccc(-c2c3cc(Cl)c(=O)cc-3oc3cc([O-])c(Cl)cc23)c(C(=O)[O-])c1.C[N+](C)(C)C.C[N+](C)(C)C.C[N+](C)(C)C.C[N+](C)(C)C [SG]
